A short description of this series: gradient 5% acetonitrile 3 min, to 50% in 2 min, to 85% in 15 min, held 3 min, 100 µL/min. The note with it: column: Zorbax Extend-C18 2.1 x 50 mm; eluents: water / acetonitrile, 0.1% formic acid. An outline of the steps:
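Retention times of pure standards were taken from adduct peaks that were selected by computer and manually inspected. Over 3 months, mixtures of ~100 molecules were run by HPLC–quadrupole time-of-flight mass spectrometry in positive and negative ionization mode. The Zorbax Extend-C18 column (2.1 × 50 mm, 1.8 μm) ran at 100 μL/min in water and acetonitrile, each containing 0.1% formic acid, with 40 μL dead volume and 900 μL dwell volume.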
For the compound `CNC(=O)c1cc(C)nc2ccc(Cl)cc12`, the RP-LC retention time stood at 607 s.
The value for `CC(=O)Nc1ccc(OC[C@](C)(O)C(=O)Nc2ccc([N+](=O)[O-])c(C(F)(F)F)c2)cc1` was 858 s; that for `Cc1nc2ccn(Cc3ccco3)c(=O)c2cc1C(=O)NCCC1=CCCCC1` was 828 s.
The value for `CCc1ccc(NS(=O)(=O)c2ccc(-c3c(C)noc3C)cc2)cc1` was 996 s; that for `O=C(C1=CN(c2ccc(Cl)cc2)c2ccccc2S1(=O)=O)N1CCCC1` was 827 s; that for `CC(C)c1ccc(NC(=O)C2CCN(C(=O)C(C)(C)C)CC2)cc1` was 907 s.
The value for `O=C(NCCC1=CCCCC1)C1CCCN(c2nc3ccccc3n(Cc3ccccc3)c2=O)C1` (stereo not given) was 1310 s.
In turn, `CN(CC1(C)CCOCC1)C(=O)NCc1cccc(F)c1` registered an RP-LC retention time of 731 s.
The value for `COc1ccc(-n2c(CN3CCN(C(=O)NC4CCCCC4)CC3)nc3cccnc32)cc1` was 668 s; that for `O=c1n(Cc2ccccc2Cl)nc2ccc(S(=O)(=O)N3CCCCCC3)cn12` was 1000 s; that for `Cc1ccc(CN2C[C@@H](CO)[C@H](c3nc(-c4cccnc4)no3)C2)o1` was 596 s.
The value for `O=C(CSc1ccc(N2CCCC(C(=O)NC3CC3)C2)nn1)Nc1cccc(F)c1` (stereo not given) was 611 s.
`O=C1CC(c2ccccc2)N(C2CCC2)CCCCCN1` (stereo not given): the RP-LC retention time was 595 s.
The value for `COc1cc(OC)c(NC(=O)c2cnn(-c3ccccc3)c2)cc1Cl` was 944 s; that for `CCN1C=C(C(=O)OCc2cccc(F)c2)C(C)=NS1(=O)=O` was 968 s.
The value for `CNC(=O)CN(C)C(=O)C1CCCCc2nnc(C(C)C)n21` (stereo not given) was 542 s; that for `Cc1nn(C(C)C(=O)NCCCN2CCC(N3CCCCC3)CC2)c(=O)c2c1sc1ccccc12` (stereo not given) was 592 s.
The value for `CCOCC(=O)N1CC(c2nc(CCOCC3CCOCC3)no2)C1` was 644 s; that for `Cc1ccccc1S(=O)(=O)N1CCC2(CC1)CC(OCc1ccccc1)CCO2` (stereo not given) was 1210 s.
`O=C(Cn1nc(-c2ccccc2)c2cc(Cl)ccc21)N1CCN(c2ccccn2)CC1` displayed an RP-LC retention time of 757 s.
The compound `CCOC(=O)C1CCN(C(=O)c2cn3c(n2)CCCC3)CC1` came in with an RP-LC retention time of 586 s.
The compound `Cn1c(N2CCN(C(=O)c3c(F)cccc3F)CC2)cc(=O)n(C)c1=O` displayed an RP-LC retention time of 648 s.
The value for `CC1(C(=O)NCc2cccc(F)c2)CCCN(S(=O)(=O)c2ccccc2)C1` (stereo not given) was 902 s; that for `CCOc1ccc(C(C)NC(=O)c2cc(NC(C)=O)cc3nc(C)ccc23)cc1` (stereo not given) was 649 s.
The value for `COc1ccc(C(=O)N2CCC(n3c(-c4ccoc4)nc4cccnc43)C2)cc1` (stereo not given) was 659 s; that for `CC(=O)Nc1ccc(-n2cnc(C(=O)NCc3ccc(F)cc3)c2)nc1` was 681 s.
The value for `Clc1ccccc1-c1nc(-c2ccc(-n3ccnc3)nc2)no1` was 749 s; that for `Nc1nc(SCC(=O)Nc2ccc(F)c(Cl)c2)n[nH]1` was 621 s.
In turn, `CC(O)(CNC(=O)c1cccc(C(F)(F)F)c1)c1ccccc1` (stereo not given) came in with an RP-LC retention time of 808 s.
Consider `CCOC(=O)C1CCCN(C(=O)CCC2CCCN(c3cc(NC4CC4)ncn3)C2)C1` (stereo not given), for which the RP-LC retention time turned out to be 666 s.
`COc1ccc(OC)c(NC(=O)C2CC(=O)N(CCc3c[nH]c4ccc(F)cc34)C2)c1` (stereo not given) yielded an RP-LC retention time of 794 s.
The value for `CCOc1ccccc1NC(=O)NCCc1nc2cccnc2n1C1CCCC1` was 782 s.
The value for `CC1CC(=O)N(CC(=O)NCc2ccc3c(c2)OCO3)c2ccccc2S1` (stereo not given) was 741 s.
The value for `COc1cccc(N2C=C(C(=O)N3CCOCC3)S(=O)(=O)c3ccccc32)c1` was 645 s.
Consider `CCOc1ccc(N2CC(c3nc(-c4ccc(C)cc4)no3)CC2=O)cc1` (stereo not given), for which the RP-LC retention time was determined as 1090 s.
The value for `O=C(NCc1ccc(F)cc1Cl)c1cn2c(n1)CCCC2` was 607 s; that for `COc1cc(OC)c(NC(=O)c2[nH]c(C)c(S(=O)(=O)N3CCCC3)c2C)cc1Cl` was 982 s.
Regarding `CC1CCN(C(=O)c2cccn2Cc2noc(-c3ccc(Cl)cc3)n2)CC1`, the RP-LC retention time amounted to 1200 s.
The value for `COC(=O)c1ccc2c(=O)n(-c3cccc(Cl)c3)c(N3CCCC3)nc2c1` was 1040 s.
The value for `Cc1nn(-c2ccccc2)c(C)c1S(=O)(=O)N1CCC(C(=O)N2c3ccccc3CC2C)CC1` (stereo not given) was 1060 s; that for `CC(C)n1cnc(S(=O)(=O)N2CCCC(C(=O)N3CCN(c4ncccn4)CC3)C2)c1` (stereo not given) was 682 s.
The value for `CSc1ncn(-c2nc(N(C)C)nc(N3CCCCC3)n2)n1` was 1090 s; that for `Cc1nn(-c2ccc(F)cc2)c(C)c1S(=O)(=O)N1CCC(C(=O)N2CCN(C)CC2)CC1` was 625 s.
The compound `Cc1noc2nc(C)n(CC(=O)Nc3ccccc3C(F)(F)F)c(=O)c12` registered an RP-LC retention time of 779 s.
The value for `O=C(CN1CCc2[nH]c3c(F)c(Cl)ccc3c(=O)c2C1)NCc1ccccc1F` was 664 s; that for `CCc1nn2c(CNS(=O)(=O)Cc3ccccc3F)c(-c3ccccc3)nc2s1` was 948 s.
Take `O=C(NCc1ccc(F)cc1)c1cn2c(n1)COCC2`: the RP-LC retention time turned out to be 631 s.
The value for `O[C@@H]1C[C@@H](c2nnc3n2CCN(Cc2cccc(F)c2)C3)N(Cc2cccnc2)C1` was 588 s.
The value for `O=C(NCc1nc(-c2ccc(Oc3ccc(Cl)cc3)cc2)no1)c1ccco1` was 987 s; that for `Cc1ccc(S(=O)(=O)CC(=O)Nc2nc(-c3ccccc3)cs2)cc1` was 933 s.
With `COc1ccc(OC)c(NC(=O)Cn2c(=O)c(CCC(=O)NCC(C)C)nc3ccccc32)c1`, the RP-LC retention time stood at 798 s.
The value for `Cn1cc(S(=O)(=O)N2CCCC2)cc1C(=O)N1CCN(c2ccccn2)CC1` was 594 s; that for `CCc1ccc(NC(=O)N2CCCC(C)(C(=O)NCc3cccc(OC)c3)C2)cc1` (stereo not given) was 968 s.
In the case of `CCOC(=O)c1c(S(=O)(=O)N2CCC(C(=O)NCc3ccc(F)cc3)CC2)c(C)n(C)c1C`, the RP-LC retention time worked out at 808 s.
The value for `CN1C(=O)[C@H]2CN(Cc3cccc4[nH]ccc34)C[C@H]2C1=O` was 552 s; that for `CCCN1CCCCc2cc(C(=O)NC)sc21` was 861 s.
The value for `CN(C)c1ccc(CNC(=O)c2ccc3c(c2)NC(=O)C2CCCCN32)cc1` (stereo not given) was 617 s; that for `CCN(Cc1ccccc1)C(=O)c1cn(-c2cc(N3CCC(C)CC3)ncn2)cn1` was 1120 s; that for `CN(CC1CCOC1)C(=O)Nc1ccccc1` (stereo not given) was 653 s.
The value for `CSc1ccccc1NC(=O)Cn1cnc(-c2cccs2)cc1=O` was 749 s.
The compound `O=C(COc1cccc2ccc(N3CCOCC3)nc12)Nc1ccc(OC(F)(F)F)cc1` had an RP-LC retention time of 703 s.
In the case of `COc1c(C(=O)NCc2ccc3c(c2)OCO3)sc2cc(Cl)ccc12`, the RP-LC retention time worked out at 1070 s.
The value for `CCn1cnc(S(=O)(=O)N2CCC(C(=O)NC3CCCCCC3)CC2)c1` was 737 s; that for `COc1ccc(-c2nc(Cn3c(=O)c4c(C)cc(C)nc4n(C)c3=O)c(C)o2)cc1` was 1200 s; that for `O=C(CCn1nnc2ccccc2c1=O)NCC1CCS(=O)(=O)C1` (stereo not given) was 585 s.
The value for `CCOc1cc(=O)n2c(c1C(=O)N1CCCCCC1)CCCCC2` was 703 s.
`Cc1cc2[nH]c(C(=O)Nc3cc(F)ccc3F)c(CN3CCCC3)c2s1`: the RP-LC retention time came out at 702 s.
The value for `CCOc1ccc(N2C(=O)C3N=NN(Cc4nc(-c5ccccc5Cl)no4)C3C2=O)cc1` (stereo not given) was 996 s; that for `CCc1cccc(NC(=O)CSc2cc(N3CCN(c4ccccc4OC)CC3)ncn2)c1` was 1090 s.
The value for `Cc1ccc(-c2nnc(-c3cccc(S(=O)(=O)NCc4cccs4)c3)o2)cc1` was 1030 s; that for `CSc1ccc(CCNC(=O)CCCN2C(=O)CCn3nc(C)cc32)cc1` was 690 s.
`Cc1cccc(-c2noc(-c3nn(CC(=O)NC4CCCCC4)c4ccccc34)n2)c1` registered an RP-LC retention time of 1250 s.
The value for `CCC(=O)Nc1ccc(CCc2nc3ccc(C(=O)NC(c4cccs4)C(C)C)cc3[nH]2)cc1` (stereo not given) was 702 s; that for `Cc1cc(-c2nnc(-c3ccccc3)o2)c(C)n1CC(=O)Nc1ccc(F)cc1` was 938 s; that for `C1CCC(C(CC2CCCCN2)C2CCCCC2)CC1` (stereo not given) was 1060 s.
The value for `Cc1ccc(Cn2cc(-c3ccncc3)cc2C(=O)N2CCC(N3CCCCC3)CC2)cc1` was 564 s; that for `Cc1nc(C)c(C(=O)NCC2CCCCC(=O)N2)s1` (stereo not given) was 595 s.
The value for `Cc1ccc(Sc2nccnc2N2CCCC(C(=O)NC3CCCCC3)C2)cc1` (stereo not given) was 1150 s; that for `CCc1ccc(NC(=O)Cn2c(=O)c3cc(-c4ccco4)nn3c3ncccc32)cc1` was 882 s.
With `NS(=O)(=O)c1cccnc1Nc1ccc(Oc2ccccc2)cc1`, the RP-LC retention time worked out at 953 s.
